Assay type in all cases: cell-based
Test [1] addresses T1, human muscarinic M1 receptor (Homo sapiens, UniProt P11229).
T1 construct: expressed in transfected cells
T1 sequence (P11229 1-460): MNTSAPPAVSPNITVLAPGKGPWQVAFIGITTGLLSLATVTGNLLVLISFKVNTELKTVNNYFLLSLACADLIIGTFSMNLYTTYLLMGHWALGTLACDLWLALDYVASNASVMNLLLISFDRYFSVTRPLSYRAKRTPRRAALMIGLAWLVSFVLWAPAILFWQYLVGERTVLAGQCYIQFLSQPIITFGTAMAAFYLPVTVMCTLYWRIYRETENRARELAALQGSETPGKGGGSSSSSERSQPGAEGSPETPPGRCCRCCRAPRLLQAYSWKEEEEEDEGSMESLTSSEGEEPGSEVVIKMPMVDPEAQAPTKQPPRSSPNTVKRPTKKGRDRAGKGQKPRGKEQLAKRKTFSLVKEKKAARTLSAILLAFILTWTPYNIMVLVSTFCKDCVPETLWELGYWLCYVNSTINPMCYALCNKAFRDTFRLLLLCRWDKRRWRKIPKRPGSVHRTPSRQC
Description: Alphascreen Surefire phospho-ERK1/2 functional assay, M1. The note with it: for EC50: CHO cells stably expressing human M1, phospho-ERK1/2, read-out: pEC50 M1 (converted); for Emax: CHO. How it is done: (§1) ERK1/2 phosphorylation is a downstream consequence of both Gq/11 and Gi/o protein coupled receptor activation, making it highly suitable for the assessment of M1, M3 (Gq/11 coupled) and M2, M4 receptors (Gi/o coupled), rather than using different assay formats for different receptor subtypes. CHO cells stably expressing the human muscarinic M1, M2, M3 or M4 receptor were plated (25K/well) onto 96-well tissue culture plates in MEM-alpha+10% dialysed FBS. Once adhered, cells were serum-starved overnight. Agonist stimulation was performed by the addition of 5 μL agonist to the cells for 5 min (37° C.). Media was removed and 50 μL of lysis buffer added. After 15 min, a 4 μL sample was transferred to 384-well plate and 7 μL of detection mixture added. Plates were incubated for 2 h with gentle agitation in the dark and then read on a PHERAstar plate reader.
(§2) pEC50 and Emax figures were calculated from the resulting data for each receptor subtype.

Test [2] deals with T2, human muscarinic M2 receptor (Homo sapiens, UniProt P08172).
T2 construct: expressed in transfected cells
T2 sequence (P08172 1-466): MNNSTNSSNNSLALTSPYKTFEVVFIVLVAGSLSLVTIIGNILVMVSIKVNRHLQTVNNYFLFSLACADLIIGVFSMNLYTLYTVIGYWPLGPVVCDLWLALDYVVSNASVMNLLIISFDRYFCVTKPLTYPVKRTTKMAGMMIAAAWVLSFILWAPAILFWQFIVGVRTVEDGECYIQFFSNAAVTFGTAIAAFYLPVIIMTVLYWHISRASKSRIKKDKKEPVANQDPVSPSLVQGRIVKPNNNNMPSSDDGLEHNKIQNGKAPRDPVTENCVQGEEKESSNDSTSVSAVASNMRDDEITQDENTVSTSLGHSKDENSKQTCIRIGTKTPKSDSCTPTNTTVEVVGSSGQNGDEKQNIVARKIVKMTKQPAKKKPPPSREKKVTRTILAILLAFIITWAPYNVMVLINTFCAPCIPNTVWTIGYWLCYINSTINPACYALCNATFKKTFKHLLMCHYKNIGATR
The test is described as follows: Alphascreen Surefire phospho-ERK1/2 functional assay, M2. As to the method: as §1, §2
(Bead proximity is the source of the signal in Alpha formats.)

Test [3] deals with T3, human muscarinic M3 receptor (Homo sapiens, UniProt P20309).
T3 construct: expressed in transfected cells
T3 sequence (P20309 whole entry): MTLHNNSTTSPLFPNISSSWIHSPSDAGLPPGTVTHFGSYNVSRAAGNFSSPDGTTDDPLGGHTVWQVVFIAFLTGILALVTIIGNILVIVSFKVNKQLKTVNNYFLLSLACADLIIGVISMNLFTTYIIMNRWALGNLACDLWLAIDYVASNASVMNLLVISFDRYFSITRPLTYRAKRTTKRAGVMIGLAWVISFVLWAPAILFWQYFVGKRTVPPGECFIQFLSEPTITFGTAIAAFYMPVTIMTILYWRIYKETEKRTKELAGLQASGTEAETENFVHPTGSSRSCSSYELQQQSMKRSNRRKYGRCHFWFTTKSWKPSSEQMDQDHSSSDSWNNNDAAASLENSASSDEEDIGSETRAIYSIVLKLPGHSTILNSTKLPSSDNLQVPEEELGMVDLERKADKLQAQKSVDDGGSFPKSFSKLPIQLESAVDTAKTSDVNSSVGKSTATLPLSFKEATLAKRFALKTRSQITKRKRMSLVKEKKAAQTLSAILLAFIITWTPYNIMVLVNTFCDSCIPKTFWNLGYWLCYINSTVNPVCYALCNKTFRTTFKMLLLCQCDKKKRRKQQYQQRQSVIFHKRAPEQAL
Description: Alphascreen Surefire phospho-ERK1/2 functional assay, M3. How it is done:
as §1, §2

Test [4] deals with T4, human muscarinic M4 receptor (Homo sapiens, UniProt P08173).
T4 construct: expressed in transfected cells
T4 sequence (P08173 1-479): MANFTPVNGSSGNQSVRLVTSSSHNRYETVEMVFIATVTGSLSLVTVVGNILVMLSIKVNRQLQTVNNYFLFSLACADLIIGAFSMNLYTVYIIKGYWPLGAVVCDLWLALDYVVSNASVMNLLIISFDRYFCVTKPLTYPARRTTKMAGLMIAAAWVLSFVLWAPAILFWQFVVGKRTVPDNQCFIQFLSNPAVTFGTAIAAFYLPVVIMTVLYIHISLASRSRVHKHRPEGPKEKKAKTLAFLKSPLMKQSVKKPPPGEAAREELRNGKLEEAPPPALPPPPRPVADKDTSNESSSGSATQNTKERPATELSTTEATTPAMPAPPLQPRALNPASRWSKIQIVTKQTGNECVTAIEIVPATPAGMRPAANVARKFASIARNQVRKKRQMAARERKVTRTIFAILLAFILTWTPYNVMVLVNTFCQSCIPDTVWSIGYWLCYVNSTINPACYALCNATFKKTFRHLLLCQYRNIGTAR
The test is described as follows: Alphascreen Surefire phospho-ERK1/2 functional assay, M4. The conditions noted are these: for EC50: phospho-ERK1/2, read-out: pEC50 M4 (converted); for Emax: CHO. How it is done:
as §1, §2

[5] abbreviates: read-out: % Emax cf. ACh, M1, CHO cells stably expressing human M1, relative to ACh.
[6] abbreviates: CHO cells stably expressing human M4.
Setting [7] is: read-out: % Emax cf. ACh, M4, CHO cells stably expressing human M4, relative to ACh.

For orientation: Emax means the greatest response seen or fitted, relative to the assay's reference.

Like-named read-outs stand apart in the source and are kept apart here.

`CCOC(=O)N1[C@@H]2CCC[C@H]1CC(N1CCC(C(=O)NC3(C)CCC3)CC1)C2` (mixture of isomers) [Example 6 - mixture of diastereomers, ethyl 3-{4-[(1-methylcyclobutyl)carbamoyl]piperidin-1-yl}-9-azabicyclo[3.3.1]nonane-9-carboxylate]: the EC50 is 43.7 nM in test [1]; over 20000 nM in test [2] (CHO cells stably expressing human M2, phospho-ERK1/2, read-out: pEC50 M2 (converted)); over 20000 nM in test [3] (CHO cells stably expressing human M3, phospho-ERK1/2, read-out: pEC50 M3 (converted)); 468 nM in test [4] (setting [6]). Also, the Emax in test [1] (setting [5]) was found to be 151%; in test [2] (CHO, read-out: % Emax cf. ACh, M2), 13%; in test [3] (CHO, read-out: % Emax cf. ACh, M3), 5%; in test [4] (setting [7]) it was 54%.
For `CCOC(=O)N1CCC2(CC(N3CCC(C(=O)NC(C)(C)CC)CC3)C2)C1` (mixture of isomers) [Example 16 - mixture of diastereomers, ethyl 2-{4-[(2-methylbutan-2-yl)carbamoyl]piperidin-1-yl}-6-azaspiro[3.4]octane-6-carboxylate], the values for the EC50 in test [1] and in test [4] (setting [6]) were 309 nM and 646 nM, respectively. For the same compound, the Emax turned out to be 113% in test [1] (read-out: % Emax cf. ACh, M1) and 56% in test [4] (read-out: % Emax cf. ACh, M4).
In the case of `CCOC(=O)N1CCC2(CC(N3CCC(C(=O)NCC4CCC4)CC3)C2)C1` (mixture of isomers) [Example 19 - mixture of diastereomers, ethyl 2-{4-[(cyclobutylmethyl)carbamoyl]piperidin-1-yl}-6-azaspiro[3.4]octane-6-carboxylate], the EC50 in test [1] was 363 nM; in test [4] (setting [6]), 1020 nM. Besides, the Emax was 109% in test [1] (read-out: % Emax cf. ACh, M1) and 42% in test [4] (read-out: % Emax cf. ACh, M4).
In the case of `[2H]C([2H])([2H])C([2H])([2H])OC(=O)N1CCC2(CC(N3CCC(C(=O)NC4(C([2H])([2H])[2H])C([2H])([2H])C([2H])([2H])C4([2H])[2H])CC3)C2)C1` (mixture of isomers) [Example 31 - mixture of diastereomers, (1,1,2,2,2-pentadeutero)ethyl 2-(4-{[1-(1,1,1-trideuteromethyl)-2,2,3,3,4,4-hexadeuterocyclobutyl]carbamoyl}piperidin-1-yl)-6-azaspiro[3.4]octane-6-carboxylate], the results for the EC50 in test [1] and in test [4] (setting [6]) were 407 nM and 646 nM, respectively. Moreover, the Emax in test [1] (read-out: % Emax cf. ACh, M1) turned out to be 110%; in test [4] (read-out: % Emax cf. ACh, M4), 77%.
`CCOC(=O)N1C2CCC1CC(N1CCC(C(=O)NC3(C)CCC3)CC1)C2` (single isomer, unassigned) [Example 1 - Isomer 1, ethyl 3-{4-[(1-methylcyclobutyl)carbamoyl]piperidin-1-yl}-8-azabicyclo[3.2.1]octane-8-carboxylate]: the EC50 was 324 nM in test [1] and 1020 nM in test [4] (setting [6]). For the same compound, the Emax in test [1] (setting [5]) was found to be 99%. The “% Emax cf. ACh, M4” value in test [4] (CHO cells stably expressing human M4, relative to ACh, listed as 1 - Isomer 1) is 51%.
For the compound `CCOC(=O)N1C2CCC1CC(N1CCC(F)(C(=O)NC3(C)CCC3)CC1)C2` (single isomer, unassigned) [Example 4 - Isomer 2, ethyl 3-{4-fluoro-4-[(1-methylcyclobutyl)carbamoyl]piperidin-1-yl}-8-azabicyclo[3.2.1]octane-8-carboxylate], the figures for the EC50 in test [1] and in test [4] (setting [6]) were 145 nM and 1070 nM, respectively. Further, the Emax came out at 111% in test [1] (setting [5]) and 44% in test [4] (setting [7]).
For `CCOC(=O)N1CCC2(CC(N3CCC(C(=O)NC4(C)CCC4)CC3)C2)C1` (single isomer, unassigned) [Example 9 - Isomer 1, ethyl 2-{4-[(1-methylcyclobutyl)carbamoyl]piperidin-1-yl}-6-azaspiro[3.4]octane-6-carboxylate], the EC50 in test [1] was 302 nM; in test [4] (setting [6]) it was 589 nM. Also, the Emax in test [1] (read-out: % Emax cf. ACh, M1) was 102%; in test [4] (read-out: % Emax cf. ACh, M4) it was 67%.
As to `[2H]C([2H])([2H])C1(NC(=O)C2CCN(C3CC4(CCN(C(=O)OCC)C4)C3)CC2)C([2H])([2H])C([2H])([2H])C1([2H])[2H]` (single isomer, unassigned) [Example 22 - Isomer 2, ethyl 2-(4-{[1-(1,1,1-trideuteromethyl)-2,2,3,3,4,4-hexadeuterocyclobutyl]carbamoyl}piperidin-1-yl)-6-azaspiro[3.4]octane-6-carboxylate], the results for the EC50 in test [1] and in test [4] (setting [6]) were 79.4 nM and 209 nM, respectively. Moreover, the Emax in test [1] (read-out: % Emax cf. ACh, M1) was 103%; in test [4] (read-out: % Emax cf. ACh, M4), 67%.
Turning to `CCOC(=O)N1CCC2(CC(N3CCC(C(=O)NC4(CF)CCC4)CC3)C2)C1` (single isomer, unassigned) [Example 23 - Isomer 2, ethyl 2-(4-{[1-(fluoromethyl)cyclobutyl]carbamoyl}piperidin-1-yl)-6-azaspiro[3.4]octane-6-carboxylate], the EC50 was 155 nM in test [1] and 219 nM in test [4] (setting [6]). For the same compound, the Emax in test [1] (read-out: % Emax cf. ACh, M1) was 90%; in test [4] (read-out: % Emax cf. ACh, M4), 67%.
As to `[2H]C([2H])([2H])COC(=O)N1CCC2(CC(N3CCC(C(=O)NC4(C([2H])([2H])[2H])CCC4)CC3)C2)C1` (single isomer, unassigned) [Example 26 - Isomer 2, (2,2,2-trideutero)ethyl 2-(4-{[1-(1,1,1-trideuteromethyl)cyclobutyl]carbamoyl}piperidin-1-yl)-6-azaspiro[3.4]octane-6-carboxylate], the EC50 in test [1] is 81.3 nM; in test [4] (setting [6]) it was 257 nM. Further, the Emax in test [1] (read-out: % Emax cf. ACh, M1) was 108%; in test [4] (read-out: % Emax cf. ACh, M4), 110%.
In the same order, the values of `[2H]C([2H])([2H])COC(=O)N1CCC2(CC(N3CCC(C(=O)NC4(CF)CCC4)CC3)C2)C1` (single isomer, unassigned) [Example 28 - Isomer 2, (2,2,2-trideutero)ethyl 2-(4-{[1-(fluoromethyl)cyclobutyl]carbamoyl}piperidin-1-yl)-6-azaspiro[3.4]octane-6-carboxylate] are 324 nM, 309 nM, 120% and 106%.
As for `[2H]C([2H])([2H])C1(NC(=O)C2CCN(C3CC4(CCN(C(=O)OC([2H])([2H])C([2H])([2H])[2H])C4)C3)CC2)CCC1` (single isomer, unassigned) [Example 30 - Isomer 2, (1,1,2,2,2-pentadeutero)ethyl 2-(4-{[1-(1,1,1-trideuteromethyl)cyclobutyl]carbamoyl}piperidin-1-yl)-6-azaspiro[3.4]octane-6-carboxylate], the EC50 in test [1] was 85.1 nM; in test [4] (setting [6]) it was 195 nM. Besides, the Emax is 105% in test [1] (read-out: % Emax cf. ACh, M1) and 111% in test [4] (read-out: % Emax cf. ACh, M4).

Source of the values: patent US9266857B2, “Bicyclic AZA compounds as muscarinic M1 receptor agonists” (Heptares Therapeutics Limited, priority 2012, dated 2016).
